Data reported in patent US20120041025A1, “Dihydrolipoic Acid Derivatives Comprising Nitric Oxide and Therapeutic Uses Thereof” (priority 2009, published 2012).

How the values were obtained:
[1] = test system: low-density lipoprotein (LDL); experiment: Inhibition of low-density lipoprotein oxidation, spectral analysis at O.D. 234; format: biochemical; conditions: 10, 25, and 50 μM NO-DHLA in ethyl alcohol
Method: To determine whether the dinitroso-derivative of dihydrolipoic acid (6,8-bis[(oxidoazanylidyne)-λ^4-sulfanyl]octanoic acid or “NO-DHLA”) was capable of inhibiting low-density lipoprotein (LDL) oxidation, LDLs were incubated in ethyl alcohol alone or with NO-DHLA. A spectral analysis of these solutions was then performed at an O.D. of 234, as absorbance at that portion of the spectrum is indicative of the formation of the oxidized fatty acid component of LDL.

[2] = Storage stability of DHLA-NO solution (color / absorbance at OD 545 nm); format: physicochemical
Method: Furthermore, it was also observed that other reduced thiols (cysteine, glutathione), which were used as controls, generated similar S-nitroso thiol compounds. NO generated from the decomposition of other NO donors also generated nitroso-DHLA when incubated with DHLA. […] However, DHLA-NO stored at −80° C. retained its color up for up to 3 months without any loss of absorbance at OD 545 nm.

[3] = test system: bovine serum albumin (BSA); experiment: Nitration of bovine serum albumin by NO-DHLA, western blot with anti-nitrotyrosine antibodies (NO donation); format: biochemical; conditions: BSA 25 mg/ml incubated with NO-DHLA (6 to 15 μl) for 1 hr; untreated albumin had no detectable nitrotyrosine
Method: To determine the ability of the dinitroso-derivative of DHLA (6,8-bis[(oxidoazanylidyne)-λ^4-sulfanyl]octanoic acid or “NO-DHLA”) to donate nitric oxide (NO), bovine serum albumin (BSA) was first prepared in water at 25 mg/ml. In 100 μl of alcohol, increasing concentrations of BSA (15 to 30 μl) were then mixed with increasing concentrations of the NO-DHLA (0 to 15 μl) and incubated for 1 hr. Table 1 represents the incubation:
At the end of the incubation, samples were the separated by SDS-PAGE electrophoresis with along with markers of molecular weight. At the end of the electrophoresis, the blot was subsequently transferred on to a nitrocellulose membrane and western blotting was performed using anti-nitrotyrosine antibodies at a 1:1000 dilution (Oxford Biomedical Research, Rochester Hills, Mich.). Non-specific sites on the nitrocellulose were blocked with milk protein for 16 h at 4° C. and then overlaid with a polyclonal anti-nitrotyrosine rabbit antibody. Peroxidase conjugated anti-rabbit IgG was used as secondary antibody. […]

O=NSCCC(CCCCC(=O)O)SN=O (centres unmarked) [NO-DHLA, 6,8-bis[(oxidoazanylidyne)-λ^4-sulfanyl]octanoic acid]
oxidation of LDL (O.D. at 234 over time) [1]: effectively prevented or significantly reduced the oxidation of LDL | stability of solution stored at room temperature ([2]; solution stored at room temperature, color): decomposed, losing color within hours | stability without any loss of absorbance at OD 545 nm ([2]; stored at −20° C.): stable at −20 °C for at least one month | time color retained without any loss of absorbance at OD 545 nm ([2]; stored at −80° C.): up to 3 months | nitrotyrosine formation on BSA (reactivity with anti-nitrotyrosine antibody) [3]: intense reactivity with the antibody
